# Reference: the supplement of paper PMC10307832
# Columns and labels:
# Assay in all cases: relative viability (nuclei count vs DMSO), 5 days (fraction); higher = more cells survive
# [1] = compound: CN1CCN(c2ccc3nc(-c4c(N)c5c(F)cccc5[nH]c4=O)[nH]c3c2)CC1 [Dovitinib]
# In short: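 Cells of lung cancer lines were placed in 1536-well plates and kept overnight at 37 °C. Pinning then delivered five library-drug doses (not always all listed), spaced by √10, onto plates anchored with vehicle, and the cells were left 5 days without changing medium. One step fixed, permeabilised and stained them with Hoechst, and MetaXpress counted nuclei in 4× images. Viability, as a median over plates, is treated-well nuclei divided by vehicle-well nuclei, with acceptance only at control CV below 25% and at least one doubling.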
# [2] = compound: CN1CCN(c2ccc3nc(-c4c(N)c5c(F)cccc5[nH]c4=O)[nH]c3c2)CC1 [Dovitinib] + CC1(C)CCC(c2ccc(Cl)cc2)=C(CN2CCN(c3ccc(C(=O)NS(=O)(=O)c4ccc(N[C@H](CCN5CCOCC5)CSc5ccccc5)c(S(=O)(=O)C(F)(F)F)c4)cc3)CC2)C1 [Navitoclax] (partner 0.5 µM)
# In short: (§1)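 Lung cancer cell lines were seeded in 1536-well plates and dosed by pin tool the next day, with either a single drug or a fixed anchor-drug dose combined with five library-drug doses (not always all listed) spaced in √10 steps. Five days later, one step fixed the cells and stained their nuclei (final 0.05% Triton X-100, 1% formaldehyde, 1 ug/ml Hoechst), and nuclei were counted on 4× images. Relative viability is the nuclei count in treated wells divided by the count in vehicle wells, and each value is the median of duplicate plates.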
# [3] = compound: CN1CCN(c2ccc3nc(-c4c(N)c5c(F)cccc5[nH]c4=O)[nH]c3c2)CC1 [Dovitinib] + COc1cc2c(Oc3ccc(NC(=O)C4(C(=O)Nc5ccc(F)cc5)CC4)cc3F)ccnc2cc1OCCCN1CCOCC1 [Foretinib] (partner 0.25 µM)
# In short: as §1
# [4] = compound: CN1CCN(c2ccc3nc(-c4c(N)c5c(F)cccc5[nH]c4=O)[nH]c3c2)CC1 [Dovitinib] + CS(=O)(=O)CCNCc1ccc(-c2ccc3ncnc(Nc4ccc(OCc5cccc(F)c5)c(Cl)c4)c3c2)o1 [Lapatinib] (partner 2 µM)
# In short: as §1
# [5] = compound: CN1CCN(c2ccc3nc(-c4c(N)c5c(F)cccc5[nH]c4=O)[nH]c3c2)CC1 [Dovitinib] + CS(=O)(=O)N1CCN(Cc2cc3nc(-c4cccc5[nH]ncc45)nc(N4CCOCC4)c3s2)CC1 [Pictilisib] (partner 1 µM)
# In short: as §1
# [6] = compound: CN1CCN(c2ccc3nc(-c4c(N)c5c(F)cccc5[nH]c4=O)[nH]c3c2)CC1 [Dovitinib] + C[C@@H](Oc1cc(-c2cnn(C3CCNCC3)c2)cnc1N)c1c(Cl)ccc(F)c1Cl [Crizotinib] (partner 1 µM)
# In short: as §1
# [7] = compound: CN1CCN(c2ccc3nc(-c4c(N)c5c(F)cccc5[nH]c4=O)[nH]c3c2)CC1 [Dovitinib] + C[C@]1(O)C[C@@H](c2nc(-c3ccc4ccc(-c5ccccc5)nc4c3)c3c(N)nccn32)C1 [Linsitinib] (partner 1 µM)
# In short: as §1
# [8] = compound: CN1CCN(c2ccc3nc(-c4c(N)c5c(F)cccc5[nH]c4=O)[nH]c3c2)CC1 [Dovitinib] + Cc1nc(NC(=O)N2CCC[C@H]2C(N)=O)sc1-c1ccnc(C(C)(C)C(F)(F)F)c1 [Alpelisib] (partner 2 µM)
# In short: as §1
# [9] = compound: CN1CCN(c2ccc3nc(-c4c(N)c5c(F)cccc5[nH]c4=O)[nH]c3c2)CC1 [Dovitinib] + N=C(N)NC(=N)NCCc1ccccc1 [Phenformin] (partner 250 µM)
# In short: as §1
# [10] = compound: CN1CCN(c2ccc3nc(-c4c(N)c5c(F)cccc5[nH]c4=O)[nH]c3c2)CC1 [Dovitinib] + Nc1ncn([C@H]2C[C@H](O)[C@@H](CO)O2)c(=O)n1 [Decitabine] (partner 2 µM)
# In short: as §1
# [11] = compound: CN1CCN(c2ccc3nc(-c4c(N)c5c(F)cccc5[nH]c4=O)[nH]c3c2)CC1 [Dovitinib] + O=C(c1cc(Cc2n[nH]c(=O)c3ccccc23)ccc1F)N1CCN(C(=O)C2CC2)CC1 [Olaparib] (partner 8 µM)
# In short: as §1
cell line,measurement,setting,value
A549,relative viability,[1]; 0.02 µM,0.964
same,relative viability,[1]; 0.06325 µM,1.04
same,relative viability,[1]; 0.2 µM,1.06
same,relative viability,[1]; 0.6325 µM,0.991
same,relative viability,[1]; 2 µM,0.966
same,relative viability,[2]; first compound 0.02 µM,1.21
same,relative viability,[2]; first compound 0.06325 µM,1.11
same,relative viability,[2]; first compound 0.2 µM,1.24
same,relative viability,[2]; first compound 0.6325 µM,1.19
same,relative viability,[2]; first compound 2 µM,1.14
same,relative viability,[3]; first compound 0.02 µM,0.943
same,relative viability,[3]; first compound 0.06325 µM,0.919
same,relative viability,[3]; first compound 0.2 µM,0.954
same,relative viability,[3]; first compound 0.6325 µM,0.985
same,relative viability,[3]; first compound 2 µM,0.975
same,relative viability,[4]; first compound 0.02 µM,1
same,relative viability,[4]; first compound 0.06325 µM,0.956
same,relative viability,[4]; first compound 0.2 µM,0.893
same,relative viability,[4]; first compound 0.6325 µM,0.817
same,relative viability,[4]; first compound 2 µM,0.887
same,relative viability,[5]; first compound 0.02 µM,0.412
same,relative viability,[5]; first compound 0.06325 µM,0.474
same,relative viability,[5]; first compound 0.2 µM,0.541
same,relative viability,[5]; first compound 0.6325 µM,0.488
same,relative viability,[5]; first compound 2 µM,0.463
same,relative viability,[6]; first compound 0.02 µM,0.702
same,relative viability,[6]; first compound 0.06325 µM,0.763
same,relative viability,[6]; first compound 0.2 µM,0.741
same,relative viability,[6]; first compound 0.6325 µM,0.694
same,relative viability,[6]; first compound 2 µM,0.733
same,relative viability,[7]; first compound 0.02 µM,0.654
same,relative viability,[7]; first compound 0.06325 µM,0.573
same,relative viability,[7]; first compound 0.2 µM,0.651
same,relative viability,[7]; first compound 0.6325 µM,0.586
same,relative viability,[7]; first compound 2 µM,0.632
same,relative viability,[8]; first compound 0.02 µM,0.802
same,relative viability,[8]; first compound 0.06325 µM,0.757
same,relative viability,[8]; first compound 0.2 µM,0.701
same,relative viability,[8]; first compound 0.6325 µM,0.801
same,relative viability,[8]; first compound 2 µM,0.671
same,relative viability,[9]; first compound 0.02 µM,0.145
same,relative viability,[9]; first compound 0.06325 µM,0.174
same,relative viability,[9]; first compound 0.2 µM,0.284
same,relative viability,[9]; first compound 0.6325 µM,0.113
same,relative viability,[9]; first compound 2 µM,0.201
same,relative viability,[10]; first compound 0.02 µM,0.225
same,relative viability,[10]; first compound 0.06325 µM,0.329
same,relative viability,[10]; first compound 0.2 µM,0.248
same,relative viability,[10]; first compound 0.6325 µM,0.292
same,relative viability,[10]; first compound 2 µM,0.237
same,relative viability,[11]; first compound 0.02 µM,0.301
same,relative viability,[11]; first compound 0.06325 µM,0.329
same,relative viability,[11]; first compound 0.2 µM,0.353
same,relative viability,[11]; first compound 0.6325 µM,0.458
same,relative viability,[11]; first compound 2 µM,0.353
